Laboratory results reported in the supplement of paper PMC10307832.

What was measured:
Experiment in all cases: relative viability (nuclei count vs DMSO), 5 days (fraction); higher = more cells survive
Bortezomib + Pictilisib = compound: CC(C)C[C@H](NC(=O)[C@H](Cc1ccccc1)NC(=O)c1cnccn1)B(O)O [Bortezomib] + CS(=O)(=O)N1CCN(Cc2cc3nc(-c4cccc5[nH]ncc45)nc(N4CCOCC4)c3s2)CC1 [Pictilisib] (partner 1 µM)
Summary of the method: (§1)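 For relative viability, nuclei counts in treated wells were divided by those in vehicle wells. Lung cancer cell lines had been pin-tool dosed in 1536-well plates the day after seeding and cultured for 5 days, then fixed and stained in one step (final 0.05% Triton X-100, 1% formaldehyde, 1 ug/ml Hoechst) and imaged at 4×. Doses were one drug alone or a fixed anchor-drug dose plus five library-drug doses (not always all listed) in √10 steps, and values are duplicate-plate medians.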

[1] = compound: CC1=CC(=NN1)NC2=CC(=NC(=N2)/C=C/C3=CC=CC=C3)N4CCN(CC4)C + Nc1ncn([C@H]2C[C@H](O)[C@@H](CO)O2)c(=O)n1 [Decitabine] (partner 2 µM)
Summary of the method: as §1

Obatoclax + Pictilisib = compound: COC1=CC(c2cc3ccccc3[nH]2)=N/C1=C\c1[nH]c(C)cc1C [Obatoclax] + CS(=O)(=O)N1CCN(Cc2cc3nc(-c4cccc5[nH]ncc45)nc(N4CCOCC4)c3s2)CC1 [Pictilisib] (partner 1 µM)
Summary of the method: as §1

Obatoclax + Pemetrexed = compound: COC1=CC(c2cc3ccccc3[nH]2)=N/C1=C\c1[nH]c(C)cc1C [Obatoclax] + Nc1nc2[nH]cc(CCc3ccc(C(=O)N[C@@H](CCC(=O)O)C(=O)O)cc3)c2c(=O)[nH]1 [Pemetrexed] (partner 0.2 µM)
Summary of the method: as §1

Cell Line	relative viability (Bortezomib + Pictilisib; first compound 0.0002 µM)	relative viability (Bortezomib + Pictilisib; first compound 0.000632 µM)	relative viability (Bortezomib + Pictilisib; first compound 0.002 µM)	relative viability (Bortezomib + Pictilisib; first compound 0.006325 µM)	relative viability (Bortezomib + Pictilisib; first compound 0.02 µM)	relative viability ([1]; first compound 0.08 µM)	relative viability ([1]; first compound 0.253 µM)	relative viability ([1]; first compound 0.8 µM)	relative viability ([1]; first compound 2.53 µM)	relative viability ([1]; first compound 8 µM)	relative viability (Obatoclax + Pictilisib; first compound 0.01 µM)	relative viability (Obatoclax + Pictilisib; first compound 0.03162 µM)	relative viability (Obatoclax + Pictilisib; first compound 0.1 µM)	relative viability (Obatoclax + Pictilisib; first compound 0.3162 µM)	relative viability (Obatoclax + Pictilisib; first compound 1 µM)	relative viability (Obatoclax + Pemetrexed; first compound 0.01 µM)	relative viability (Obatoclax + Pemetrexed; first compound 0.03162 µM)	relative viability (Obatoclax + Pemetrexed; first compound 0.1 µM)	relative viability (Obatoclax + Pemetrexed; first compound 0.3162 µM)	relative viability (Obatoclax + Pemetrexed; first compound 1 µM)
201T	0.677	0.707	0.698	0.684	0.541	0.834	0.864	0.831	0.785	0.471	0.679	0.648	0.741	0.678	0.687	0.339	0.315	0.282	0.34	0.359
A549	0.507	0.531	0.468	0.049	0.0452	0.21	0.394	0.212	0.104	0.0286	0.509	0.7	0.448	0.442	0.0671					
A-427	0.673	0.626	0.771	0.703	0.175	0.603	0.582	0.568	0.489	0.213	0.727	0.698	0.593	0.719	0.615	0.95	0.965	0.74	0.909	0.75
ABC-1	0.285	0.372	0.292	0.24	0.258	1.02	0.954	1.1	0.811	0.268	0.72	0.929	0.737	0.468	0.26					
BEN	0.542	0.557	0.531	0.366	0.24	0.633	0.835	0.706	0.381	0.337	0.534	0.57	0.447	0.54	0.587	0.852	0.534	0.44	0.618	0.762
CAL-12T	0.155	0.368	0.427	0.211	0.151						0.395	0.472	0.396	0.223	0.395	1.04	1.16	1.13	0.896	0.149
COR-L23	0.922	0.777	0.609	0.0347	0.0399	0.511	0.451	0.392	0.125	0.113	0.792	0.946	0.737	0.252	0.154	0.193	0.188	0.197	0.203	0.182
